Source: patent US9089509B2, “Method of treatment of age-related macular degeneration” (YEDA RESEARCH AND DEVELOPMENT CO., LTD., priority 2006, dated 2015)

Legend:
microglia [1] = details: added to microglia activated by aggregated Aβ (Butovsky et al., 2005); cited from earlier work
microglia [2] = assay: Engulfment of aggregated Aβ(1-40) by activated microglia; assay type: cell-based, mouse; details: 10 ng/ml; Aβ(1-40) 5 μg/ml for 1 h, vs untreated microglia (FIG. 5)
Procedure: FIGS. 5A-5B show engulfment of aggregated Aβ by activated microglia. Microglia were treated with IL-4 (10 ng/ml) 24 h after seeding (MG(IL-4)) or were left untreated for 48 h (MG(−)). The media were then replaced by a labeling medium (DMEM containing 10 mg/ml bovine serum albumin), and aggregated Aβ(1-40) was added (5 μg/ml) for 1 h. Following incubation the cultures were fixed and immunostained with antibodies directed to human Aβ and co-stained for microglia (IB-4). (FIG. 5A) Confocal photomicrographs. (FIG. 5B) Quantitative analysis expressed as intensity per cell. Results of one of two experiments, each containing eight replicates (20-30 cells per replicate) per group are presented (means±SD).
Brains from neonatal (P0-P1) C57Bl/6J mice were stripped of their meninges and minced with scissors under a dissecting microscope (Zeiss, Stemi DV4, Germany) in Leibovitz-15 medium (Biological Industries, Kibbutz Beit Ha-Emek, Israel). After trypsinization (0.5% trypsin, 10 min, 37° C./5% CO2), the tissue was triturated. […]

microglia [3] = assay: CD11c expression and morphology in primary culture of mouse microglia; assay type: cell-based
Procedure: Brains from neonatal (P0-P1) C57Bl/6J mice were stripped of their meninges and minced with scissors under a dissecting microscope (Zeiss, Stemi DV4, Germany) in Leibovitz-15 medium (Biological Industries, Kibbutz Beit Ha-Emek, Israel). After trypsinization (0.5% trypsin, 10 min, 37° C./5% CO2), the tissue was triturated. The cell suspension was washed in culture medium for glial cells [DMEM supplemented with 10% fetal calf serum (FCS; Sigma-Aldrich, Rehovot), L-glutamine (1 mM), sodium pyruvate (1 mM), penicillin (100 U/ml), and streptomycin ([…])] and cultured at 37° C./5% CO2 in 75-cm^2 Falcon tissue-culture flasks (BD Biosciences) coated with poly-D-lysine (PDL) (10 mg/ml; Sigma-Aldrich, Rehovot) in borate buffer (2.37 g borax and 1.55 g boric acid dissolved in 500 ml sterile water, pH 8.4) for 1 h, then rinsed thoroughly with sterile, glass-distilled water. Half of the medium was changed after 6 h in culture and every 2nd day thereafter, starting on day 2, for a total culture time of 10-14 days. Microglia were shaken off the primary mixed brain glial cell cultures (150 rpm, 37° C., 6 h) with maximum yields between days 10 and 14, seeded (10^5 cells/ml) onto PDL-pretreated 24-well plates (1 ml/well; Corning, N.Y., N.Y.), and grown in culture medium for microglia [RPMI-1640 medium (Sigma-Aldrich, Rehovot) supplemented with 10% FCS, L-glutamine (1 mM), sodium pyruvate (1 mM), β-mercaptoethanol ([…]), penicillin (100 U/ml), and streptomycin ([…])]. The cells were allowed to adhere to the surface of a PDL-coated culture flask (30 min, 37° C./5% CO2), and non-adherent cells were rinsed off.
Cover slips from co-cultures of NPCs and mouse microglia were washed with PBS, fixed as described above, treated with a permeabilization/blocking solution containing 10% FCS, 2% bovine serum albumin, 1% glycine, and 0.1% Triton X-100 (Sigma-Aldrich, Rehovot), and stained with a combination of mouse anti-[…] (anti-βIII-T) isoform C-terminus antibodies (1:500; Chemicon, Temecula, Calif.), rat anti-CD11b (MAC1; 1:50; BD—Pharmingen, Franklin Lakes, N.J.) and hamster anti-CD11c (1:100; eBioscience, San Diego, Calif.). To capture the microglia FITC- or Cy3-conjugated Bandeiraea simplicifolia isolectin B4 (IB-4; 1:50; Sigma-Aldrich, Rehovot) was used. To detect expression of human Aβ anti-Aβ (human amino-acid residues 1-17) (mouse, clone 6E10; Chemicon) was used.
On the basis of our previous findings, we suspected that the switch from a CD11b^+/CD11c^−/IGF-1^− to a CD11b^+/CD11c^+/IGF-I^+ microglial phenotype in the Cop-1 vaccinated Tg-AD mice might be attributable to IL-4. We examined this possibility in vitro. […] In contrast, the expression of CD11c induced by IL-4 was not transient. Quantification of the ability of IL-4 to induce CD11c expression even after the microglia were pretreated with Aβ is shown in FIG. 4D.
Thus, upregulation of CD11c on bone marrow derived myeloid cells by […] will allow the cells to reach injured sites and induce beneficial effect.

[4] = system: neural stem/progenitor cells (NPCs) co-cultured with microglia; assay: Co-culture of GFP-expressing neural progenitor cells with treated microglia, neurogenesis (GFP+/βIII-T+ cells); assay type: cell-based, mouse; details: cytokine 10 ng/ml added for 48 h after 48 h aggregated Aβ(1-40) 5 μM
Procedure: Coronal sections (2 mm thick) of tissue containing the subventricular zone of the lateral ventricle were obtained from the brains of adult C57Bl/6J mice. The tissue was minced and then incubated for digestion at 37° C., 5% CO2 for 45 min in Earle's balanced salt solution containing 0.94 mg/ml papain (Worthington, Lakewood, N.J.) and 0.18 mg/ml of L-cysteine and EDTA. After centrifugation at 110×g for 15 min at room temperature, the tissue was mechanically dissociated by pipette trituration. Cells obtained from single-cell suspensions were plated (3500 cells/cm^2) in 75-cm^2 Falcon tissue-culture flasks (BD Biosciences, San Diego, Calif.), in neural stem/progenitor cell (NPC)-culturing medium [Dulbecco's modified Eagles's medium (DMEM)/F12 medium (Gibco/Invitrogen, Carlsbad, Calif.) containing 2 mM L-glutamine, 0.6% glucose, 9.6 μg/ml putrescine, 6.3 ng/ml progesterone, 5.2 ng/ml sodium selenite, 0.02 mg/ml insulin, 0.1 mg/ml transferrin, 2 μg/ml heparin (all from Sigma-Aldrich, Rehovot, Israel), fibroblast growth factor-2 (human recombinant, 20 ng/ml), and epidermal growth factor (human recombinant, 20 ng/ml; both from Peprotech, Rocky Hill, N.J.)]. Spheres were passaged every 4-6 days and replated as single cells. Green fluorescent protein (GFP)-expressing NPCs were obtained as previously described (Pluchino et al., 2003).
Brains from neonatal (P0-P1) C57Bl/6J mice were stripped of their meninges and minced with scissors under a dissecting microscope (Zeiss, Stemi DV4, Germany) in Leibovitz-15 medium (Biological Industries, Kibbutz Beit Ha-Emek, Israel). After trypsinization (0.5% trypsin, 10 min, 37° C./5% CO2), the tissue was triturated. The cell suspension was washed in culture medium for glial cells [DMEM supplemented with 10% fetal calf serum (FCS; Sigma-Aldrich, Rehovot), L-glutamine (1 mM), sodium pyruvate (1 mM), penicillin (100 U/ml), and streptomycin ([…])] and cultured at 37° C./5% CO2 in 75-cm^2 Falcon tissue-culture flasks (BD Biosciences) coated with poly-D-lysine (PDL) (10 mg/ml; Sigma-Aldrich, Rehovot) in borate buffer (2.37 g borax and 1.55 g boric acid dissolved in 500 ml sterile water, pH 8.4) for 1 h, then rinsed thoroughly with sterile, glass-distilled water. Half of the medium was changed after 6 h in culture and every 2nd day thereafter, starting on day 2, for a total culture time of 10-14 days. […]

IL-4: recombinant mouse IL-4, a cytokine derived from T-helper (Th)-2 cells
effect on Aβ-induced down-regulation of IGF-I, up-regulation of TNF-α and failure to act as APCs (microglia [1]): can reverse the down-regulation of IGF-I expression
ability of microglia to engulf aggregated Aβ(1-40) (intracellular immunoreactive Aβ) (microglia [2]): did not interfere with the ability of microglia to engulf Aβ
CD11c expression by microglia (microglia [3]; 5-day microglia cultures, vs untreated (FIG. 4A)): abundantly expressed
persistence of induced CD11c expression as a function of time in culture (microglia [3]; FIG. 4C): not transient
CD11c expression by microglia pre-exposed to Aβ (microglia [3]; cytokine added 3 days after exposure to aggregated Aβ(1-40) (FIG. 4B, 4D)): able to induce them to express CD11c
amoeboid morphology of Aβ-treated microglia (microglia [3]; on addition of cytokine, dendritic-like morphology (FIG. 4B)): reversible on addition of IL-4
counteracting the negative effect of Aβ-activated microglia on NPC survival and differentiation [4]: partially counteracted
